Test results published in US20250002463A1, “NEW SALT FORMS OF AMILORIDE AND ITS DERIVATIVES FOR PHARMACEUTICAL USE” (PSOMRI Holding AB, priority 2021, published 2025).
Where “and” joins values, the source holds several entries; their conditions need not be identical. Equal entries are not always repeated. Blank lines part the entries; values can stand above or below the molecule they belong to.

Columns and labels:
[1] = Polymorphism: solid forms found in salt screen by HT-XRPD; type: physicochemical; conditions: Example 1 salt screen in MeOH, DME, THF
Protocol: (§1) The precipitated solids were analyzed by high throughput X-ray powder diffractometry (HT XRPD). Liquid phases (both solutions and mother liquors) were evaporated at ambient conditions and the residual solids were analyzed by HT XRPD.
The salt screen experiments were carried out in methanol (MeOH), 1,2-dimethoxyethane (DME) and tetrahydrofuran (THF).

[2] = Hygroscopicity by Dynamic Vapor Sorption (DVS); type: physicochemical; conditions: for classification of hygroscopic behaviour: based on water vapour uptake at 25° C./80% RH
Protocol: The hygroscopic behaviour of the salts was evaluated through Dynamic Vapor Sorption (DVS) measurements with an RH profile 40-95-0-40% at 25° C. and a dm/dt of 0.002. The classification of the hygroscopic behaviour is based on the water vapour uptake at 25° C./80% RH in first adsorption cycle of sorption isotherm.

[3] = Physical stability under Accelerated Aging Conditions (AAC, 40° C./75% RH, 2 days), HT-XRPD; conditions: for Physically stable after AAC: Example 1; for Physical Stability: AAC 40° C./75% RH, 2 days, re-analyzed by HT-XRPD
[4] = Crystallinity of salt forms by HT-XRPD; type: physicochemical; conditions: salt screen solid forms
Protocol: as §1
XRPD patterns were obtained using the Ardena T2 high-throughput XRPD set-up. The plates were mounted on a Bruker General Area Detector Diffraction System (GADDS) equipped with a VÅNTEC-500 gas area detector corrected for intensity and geometric variations. The calibration of the measurement accuracy (peaks position) was performed using NIST SRM1976 standard (Corundum).
No background subtraction or curve smoothing was applied to the XRPD patterns.

[5] = Aqueous solubility at RT, Example 2 (water aliquot addition up to 1600 μL); type: physicochemical; conditions: for dissolution in water: water aliquots up to 1600 μL; for dissolution in water after heating: suspension in 1600 μL water heated to 50° C. for 15 min
Protocol: Aqueous solubility was determined for the anhydrous and hydrated salt forms, as well as for the salts found after the stability study. Aliquots of water were added to the solid salts until dissolution occurred or 1600 μL of water was added. The lactate salt was taken along in the solubility studies as a reference. […] The results (in mg/mL free base dissolved for better comparison between salt forms) of the solubility determination performed in water are reported in Table 9.
Upon completion of the solubility determination, the remaining solids were separated from the liquid phases and allowed to air dry. Dried solids were analyzed by HT-XRPD.

[6] = Intrinsic dissolution rate (rotating disc, μDiss) in water and FaSSIF; type: physicochemical; conditions: for IDR (mg/cm^2/min) Individual: single disc
Protocol: Rotating disc intrinsic dissolution determinations were performed with a μDiss apparatus (Pion, USA) equipped with 6 independent glass fiber probes each connected to a diode area. Before the start of the experiment the probes were calibrated using the spectrum of a Mercury 362 nm pen-ray lamp. Discs were prepared in a passivated aluminum dye with a mini-IDR press (Heath Scientific, UK).
Six dilutions of benzamil lactate salt were prepared in the dissolution media in the range from 0 to 0.5 mg/mL, and the solutions were stirred with a cross-shaped magnetic stirrer. These dilutions were used for the calibration curve which is used for the calculation of the amount of benzamil in solution. Moreover, the solutions were used to select the wavelength at which the samples were to be measured and to select the proper path length.
The dyes were placed in their Teflon holder magnet stirrer and placed into 20 mL glass vials. Before to the sample measurement, a blank of each media was taken in the respective channel. The experiment started by the gentle addition of the pre-warmed dissolution media. Vials were incubated at 37° C. under continuous stirring at 100 rpm for a maximum of 4 h. UV absorption was measured with the in-line probes at regular intervals. Upon completion of the experiment the pH of the solution was determined. Concentrations of API in solution were calculated with use of the calibration curve and plotted against time. Dissolution rates were calculated over the linear parts of the curves. All dissolution rate experiments were done in triplicate except for TFA1 which were done in duplicate due to the lack of material.

[7] = Physio-chemical stability study, open container 25° C./60% RH and 40° C./75% RH (UPLC, TGMS, HT-XRPD); type: physicochemical; conditions: for UPLC 1 week / UPLC 3 weeks / UPLC 3 days: chemical purity
Protocol: Open container at 25° C. and 60% RH • 2. Open container at 40° C. and 75% RH

[8] = Kinetic and thermodynamic solubility in water at 37° C. (1 h and 18 h, UPLC)
[9] = Example 2, 40° C./75% RH for 2 days
[10] = open container 25° C. and 60% RH
[11] = open container 40° C. and 75% RH
[12] = water, 37° C., 30 mg/ml suspension

SMILES: NC(=NC(=O)c1nc(Cl)c(N)nc1N)NCc1ccccc1.O=[N+]([O-])O [NIT5]
Polymorphism [1]: Yes
classification of hygroscopic behaviour [2]: slightly hygroscopic

SMILES: N=C(NCc1ccccc1)NC(=O)c1nc(Cl)c(N)nc1N.O=C(O)c1ccccc1 [BNZ2]
Polymorphism [1]: Yes
classification of hygroscopic behaviour [2]: slightly hygroscopic
Physically stable after AAC ([3]; 40° C./75% RH for 2 days): physically stable and Yes

SMILES: CCCC(=O)O.NC(=NC(=O)c1nc(Cl)c(N)nc1N)NCc1ccccc1 [BUT1]
Crystallinity [4]: Good
dissolution in water ([5]; RT): Full dissolution
Physical Stability [3]: Stable
physical stability upon exposure to AAC [3, 9]: physically stable

SMILES: NC(=NC(=O)c1nc(Cl)c(N)nc1N)NCc1ccccc1.O=C(O)CC(=O)O [MAO1]
Crystallinity [4]: Good
dissolution in water after heating [5]: dissolved
Physical Stability [3]: Stable
physical stability upon exposure to AAC [3, 9]: physically stable

SMILES: CCC(=O)O.NC(=NC(=O)c1nc(Cl)c(N)nc1N)NCc1ccccc1 [PRO2]
Crystallinity [4]: Moderate
dissolution in water after heating [5]: dissolved

SMILES: Cc1ccc(S(=O)(=O)O)cc1.NC(=NC(=O)c1nc(Cl)c(N)nc1N)NCc1ccccc1 [TOS1]
Polymorphism [1]: Unclear
classification of hygroscopic behaviour [2]: slightly hygroscopic
Physically stable after AAC ([3]; 40° C./75% RH for 2 days): physically stable and Yes

SMILES: CS(=O)(=O)O.NC(=NC(=O)c1nc(Cl)c(N)nc1N)NCc1ccccc1 [MES1]
Crystallinity [4]: Good
aqueous solubility compared with starting material (LAC1) ([5]; RT): better solubility value than the starting material (LAC1)
behaviour after full dissolution in water ([5]; RT): precipitation was observed after full dissolution
dissolution in water ([5]; RT): Full dissolution
behaviour in repeated aqueous solubility determination ([5]; aiming for 50 mg/ml, RT): quickly dissolved at RT and after 15 min it crashed out again as a white solid
Physical Stability [3]: Stable
physical stability upon exposure to AAC [3, 9]: physically stable

SMILES: NC(=NC(=O)c1nc(Cl)c(N)nc1N)NCc1ccccc1.O=P(O)(O)O [PHO2]
Polymorphism [1]: Yes
classification of hygroscopic behaviour [2]: slightly hygroscopic
Physically stable after AAC ([3]; 40° C./75% RH for 2 days): physically stable and Yes

SMILES: NC(=NC(=O)c1nc(Cl)c(N)nc1N)NCc1ccccc1.O=CO [FOR3]
Crystallinity [4]: Good
dissolution in water after heating [5]: dissolved

IDR (mg/cm^2/min) Average ([6]; FaSSIF, 37° C., 100 rpm): 0.14 ± 0.004 mg/cm^2/min
IDR (mg/cm^2/min) Average ([6]; Water, 37° C., 100 rpm): 0.13 ± 0.1 mg/cm^2/min
state of tablet ([6]; after about 4 h, 37° C.): still not completely dissolved
IDR difference to LAC1 ([6]; in FaSSIF): about 4 fold
Intrinsic Dissolution Rate (IDR) ([6]; water, 37° C., 100 rpm, linear part (LAC1 1 to 36 min; TFA 10-100 min)): 0.13±0.01 mg/cm^2/min
UPLC t0 ([7]; chemical purity at start of stability study): 99.1% and 100%
UPLC 1 week [7, 10]: 99.9% and 100%
UPLC 3 weeks [7, 10]: 100%
UPLC 3 days [7, 10]: 99.9% and 100%
UPLC 1 week [7, 11]: 100%
UPLC 3 weeks [7, 11]: 100%
UPLC 3 days [7, 11]: 99.9% and 100%
physical and chemical stability ([7]; incubation for 3 weeks at 25° C./60% RH and 40° C./75% RH): physically and chemically stable
TGMS 1 week [7, 10]: 0.1% water and <0.1 % water
XRPD 1 week [7, 10]: TFA2 and TFA1
TGMS 3 weeks [7, 10]: <0.1% water
XRPD 3 weeks [7, 10]: TFA2
XRPD 3 days [7, 10]: TFA2 and TFA1
TGMS 1 week [7, 11]: 0.1% water and <0.1 % water
XRPD 1 week [7, 11]: TFA2 and TFA1
TGMS 3 weeks [7, 11]: <0.1% water
XRPD 3 weeks [7, 11]: TFA2
XRPD 3 days [7, 11]: TFA2 and TFA1
XRPD t0 ([7]; start of stability study): TFA2 and TFA1
XRPD 1 h Amb. ([8]; residual solid after 1 h in water at 37° C., ambient-dried): TFA2
XRPD 1 h Vac. ([8]; residual solid after 1 h in water at 37° C., vacuum-dried): TFA2
XRPD 18 h Amb. ([8]; residual solid after 18 h in water at 37° C., ambient-dried): TFA2
XRPD 18 h Vac. ([8]; residual solid after 18 h in water at 37° C., vacuum-dried): TFA2
pH after 10 min [8, 12]: 6.0
pH after 1 h [8, 12]: 6.2
Solubility (mg/mL) 1 h ([8]; water, 37° C., 1 h (kinetic), UPLC): 2.6 mg/mL
Solubility (mg/mL) 18 h ([8]; water, 37° C., 18 h (thermodynamic), UPLC): 1.6 mg/mL
Physically stable? ([3]; AAC, 2 days at 40° C. and 75% RH, solids from thermocycling): Yes
physical stability upon exposure to AAC ([3]; Example 3 thermocycling solids, 2 days at 40° C. and 75% RH): physically stable
SMILES: NC(=NCc1ccccc1)NC(=O)c1nc(Cl)c(N)nc1N.O=C(O)C(F)(F)F [TFA2]
IDR (mg/cm^2/min) Individual ([6]; FaSSIF, 37° C., 100 rpm): 0.145 mg/cm^2/min and 0.143 mg/cm^2/min and 0.138 mg/cm^2/min
IDR (mg/cm^2/min) Individual ([6]; Water, 37° C., 100 rpm): 0.116 mg/cm^2/min and 0.143 mg/cm^2/min and 0.130 mg/cm^2/min

SMILES: N=C(NCc1ccccc1)NC(=O)c1nc(Cl)c(N)nc1N.O=C(O)c1ccccc1 [BNZ1]
Polymorphism [1]: Yes
water vapour uptake ([2]; 25° C./80% RH, first adsorption cycle): 0.1%
classification of hygroscopic behaviour [2]: non hygroscopic
Physically stable after AAC ([3]; 40° C./75% RH for 2 days): physically stable and Yes
